System: AML cell line MV4-11
Experiment: Anticancer activity: Alamar Blue 3-day proliferation assay
Assay type: cell-based
Conditions: Homo sapiens, MV4-11 cells, 72h, read-out: MV4-11 EC50_μM
Description: The impact of the compounds on cancer cell proliferation was determined using the AML cell line MV4-11 (ATCC) in a 3-day proliferation assay. MV4-11 cells were maintained in RPMI supplemented with 10% FBS at 37° C., 5% CO2. For compound testing, MV4-11 cells were plated in a 96-well black bottom plate at a density of 15,000 cells/well in 100 μL culture media and incubated at 37° C. overnight. Compound dilution series were prepared in DMSO via a 3-fold serial dilution from 100 μM to 0.005 μM. The DMSO dilution series were then diluted with media, with the final compound concentrations added to the wells ranging from 10 μM to 0.0005 μM. […] The fluorescent readings from the Alamar Blue assay were normalized to the DMSO treated cells and analyzed using the GraphPad Prism software with siginoidal curve fitting to obtain EC50.

SMILES | EC50
CCNC(=O)CC1OC(c2ccc(Cl)cc2)c2c(sc(C)c2C)-c2cn(C)c(=O)cc21 (racemic) [bb, 2-(4-(4-chlorophenyl)-2,3,9-trimethyl-8-oxo-4,6,8,9-tetrahydrothieno[2′,3′:5,6]oxepino[4,3-c]pyridin-6-yl)-N-ethylacetamide] | < 0.5 nM
CCNC(=O)CC1OC(c2ccc(Cl)cc2)c2c(cnn2C)-c2cn(C)c(=O)cc21 (racemic) [ll, 2-(4-(4-chlorophenyl)-3,9-dimethyl-8-oxo-4,6,8,9-tetrahydro-3H-pyrazolo[4′,3′:5,6]oxepino[4,3-c]pyridin-6-yl)-N-ethylacetamide] | < 0.5 nM
CCNC(=O)CC1N=C(CC2CC2)c2c(sc(C)c2C)-c2cn(C)c(=O)cc21 (racemic) [r, 2-(4-(cyclopropylmethyl)-2,3,9-trimethyl-8-oxo-8,9-dihydro-6H-pyrido[4,3-c]thieno[2,3-e]azepin-6-yl)-N-ethylacetamide] | 157 nM
CCNC(=O)CC1N=C(c2ccc(Cl)cc2)c2cc(OC)ncc2-c2cn(C)c(=O)cc21 (racemic) [t, 2-(7-(4-chlorophenyl)-9-methoxy-2-methyl-3-oxo-3,5-dihydro-2H-dipyrido[4,3-c:3′,4′-e]azepin-5-yl)-N-ethylacetamide] | 17 nM

Other lines, results leading:

EC50 | SMILES
430 nM | CCOC(=O)CC1N=C(c2ccc(Cl)cc2)c2nc(C)sc2-c2cn(C)c(=O)cc21 (racemic) [l, Ethyl 2-(4-(4-chlorophenyl)-2,9-dimethyl-8-oxo-8,9-dihydro-6H-pyrido[4,3-c]thiazolo[5,4-e]azepin-6-yl)acetate]
140 nM | CCNC(=O)CC1N=C(c2ccc(Cl)cc2)c2nc(C)sc2-c2cn(C)c(=O)cc21 (racemic) [m, 2-(4-(4-chlorophenyl)-2,9-dimethyl-8-oxo-8,9-dihydro-6H-pyrido[4,3-c]thiazolo[5,4-e]azepin-6-yl)-N-ethylacetamide]
26 nM | CCOC(=O)CC1N=C(c2ccc(Cl)cc2)c2c(cnn2C)-c2cn(C)c(=O)cc21 (racemic) [w, Ethyl 2-(4-(4-chlorophenyl)-3,9-dimethyl-8-oxo-3,6,8,9-tetrahydropyrazolo[3,4-c]pyrido[3,4-e]azepin-6-yl)acetate]
